Activity calls are given as the source filed them. The calls are words filed in the database; no cut-off is given here. Where a SMILES comes first, the peptide text is derived from it. Bridges are numbered along the chain shown (N, C = ends). Roman numbers before positions name the chains, in order. Side-chain parts run from the residue outwards. The star is where a group is joined. Acetyl(2-naphthyl) = O=C(Cc1ccc2ccccc2c1)*; Fmoc = O=C(OCC1c2ccccc2-c2ccccc21)*; Octanoyl = CCCCCCCC(=O)*
Columns and labels:
Influenza A virus [1] = assay: Antiviral activity against Influenza A virus (A/Puerto Rico/8/1934(H1N1)) infected in MDCK cells assessed as reduction in virus induced cytopathic effect pretreated with compound incubated for 1 hrs by MTT assay; assay type: functional, organism-based
[2] = Selectivity index, ratio of CC50 for MDCK cells to IC50 antiviral activity against Influenza A virus (A/Puerto Rico/8/1934(H1N1)) infected in MDCK cells assessed as reduction in virus induced cytopathic effect pre-treated with virus; assay type: toxicity, cell-based; settings: dog, read-out: Selectivity Index
[3] = Cytotoxicity against MDCK cells by CCK-8 assay; assay type: toxicity, cell-based, Canis lupus familiaris; settings: dog
Influenza A virus [4] = assay: Antiviral activity against Influenza A virus (A/Puerto Rico/8/1934(H1N1)) infected in MDCK cells assessed as reduction in virus induced cytopathic effect pre-treated with virus followed by cell infection for 1 hr by MTT assay; assay type: functional, organism-based
Influenza A virus [5] = assay: Antiviral activity against Influenza A virus (A/Puerto Rico/8/1934(H1N1)) infected in MDCK cells assessed as reduction in virus induced cytopathic effect after infection incubated for 1 hr by MTT assay; assay type: functional, organism-based
Influenza A virus [6] = assay: Antiviral activity against Influenza A virus (A/Puerto Rico/8/1934(H1N1)) infected in MDCK cells assessed as reduction in virus induced cytopathic effect during infection incubated for 1 hr by MTT assay; assay type: functional, organism-based
[7] = Cytotoxicity against MDCK cells incubated for 1 hr by MTT assay; assay type: toxicity, cell-based, Canis lupus familiaris; settings: dog
Influenza A virus [8] = assay: Antiviral activity against Influenza A virus A/FM/1/47 infected in MDCK cells incubated for 1 hr by MTT assay; assay type: functional, organism-based; settings: A/FM/1/47, MDCK
Influenza A virus [9] = assay: Antiviral activity against Influenza A virus 699(H3) clinical isolate infected in MDCK cells incubated for 1 hr by MTT assay; assay type: functional, organism-based
RAW264.7 [10] = assay: Anti-inflammatory activity against mouse RAW264.7 cells assessed as reduction in LPS induced TNF alpha level at 5 ug/ml by ELISA method; assay type: functional; settings: dose 5 µg/ml
Influenza A virus [11] = assay: Antiviral activity against Influenza A virus A/Aichi/2/68(H3N2) infected in MDCK cells incubated for 1 hr by MTT assay; assay type: functional, organism-based
RAW264.7 [12] = assay: Anti-inflammatory activity against mouse RAW264.7 cells assessed as reduction in Influenza A virus (A/Puerto Rico/8/1934(H1N1)) induced TNF alpha level at 5 ug/ml by ELISA method; assay type: functional; settings: dose 5 µg/ml
RAW264.7 [13] = assay: Anti-inflammatory activity against mouse RAW264.7 cells assessed as reduction in Influenza A virus (A/Puerto Rico/8/1934(H1N1)) induced TNF alpha level at 1 ug/ml by ELISA method; assay type: functional; settings: dose 1 µg/ml
RAW264.7 [14] = assay: Anti-inflammatory activity against mouse RAW264.7 cells assessed as reduction in LPS induced TNF alpha level at 1 ug/ml by ELISA method; assay type: functional; settings: dose 1 µg/ml
Influenza B virus = assay: Antiviral activity against Influenza B virus 699[…] clinical isolate infected in MDCK cells incubated for 1 hr by MTT assay; assay type: functional, organism-based
Hemagglutinin = Hemagglutinin (Influenza A virus, UniProt B4URE7); assay: Binding affinity to Influenza A Puerto Rico/8/1934/H1N1 hemagglutin assessed as dissociation constant by surface plasmon resonance assay
Sequence of Hemagglutinin (B4URE7 whole entry): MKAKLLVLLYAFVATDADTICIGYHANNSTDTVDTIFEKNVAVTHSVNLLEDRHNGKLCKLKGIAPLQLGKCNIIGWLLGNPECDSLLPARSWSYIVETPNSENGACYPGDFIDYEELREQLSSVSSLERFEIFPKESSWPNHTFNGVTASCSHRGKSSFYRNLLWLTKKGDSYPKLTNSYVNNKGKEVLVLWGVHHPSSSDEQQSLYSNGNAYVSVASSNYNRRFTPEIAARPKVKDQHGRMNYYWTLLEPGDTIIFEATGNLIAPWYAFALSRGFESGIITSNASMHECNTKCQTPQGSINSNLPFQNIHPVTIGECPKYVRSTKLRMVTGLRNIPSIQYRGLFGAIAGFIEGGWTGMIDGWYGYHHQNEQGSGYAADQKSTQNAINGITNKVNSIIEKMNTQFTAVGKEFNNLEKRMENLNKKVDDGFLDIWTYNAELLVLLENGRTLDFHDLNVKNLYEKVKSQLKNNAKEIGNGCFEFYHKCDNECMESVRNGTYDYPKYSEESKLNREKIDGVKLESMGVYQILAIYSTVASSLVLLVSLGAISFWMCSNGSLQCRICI

Influenza A virus [15] = assay: Antiviral activity against Influenza A virus (A/Puerto Rico/8/1934(H1N1)) infected in MDCK cells assessed as reduction in viral nucleoprotein expression level at 2.5 ug/ml during infection measured after 24 hrs post infection by indirect immunofluorescence assay; assay type: functional, organism-based; settings: dose 2.5 µg/ml
Mus musculus [16] = assay: Antiviral activity against Kunming mouse infected with Influenza A virus (A/Puerto Rico/8/1934(H1N1)) assessed as increase in body weight at 5 mg/kg, ip measured after 15 days (reference value: 178.7%); assay type: functional; settings: time 15 day
Influenza A virus [17] = assay: Antiviral activity against Influenza A virus (A/Puerto Rico/8/1934(H1N1)) infected in MDCK cells assessed as reduction in viral nucleoprotein expression level at 2.5 ug/ml pretreated with compound measured after 24 hrs post infection by indirect immunofluorescence assay; assay type: functional, organism-based; settings: dose 2.5 µg/ml
RAW264.7 [18] = assay: Anti-inflammatory activity against LPS induced mouse RAW264.7 cells assessed as suppression of NF kappa B expression level at 5 ug/ml by luciferase reporter assay; assay type: functional, cell-based; settings: dose 5.0 µg/ml
RAW264.7 [19] = assay: Anti-inflammatory activity against mouse RAW264.7 cells assessed as reduction in LPS induced TNF alpha level at 5 ug/ml by qRT-PCR analysis; assay type: functional, cell-based; settings: dose 5.0 µg/ml
RAW264.7 [20] = assay: Anti-inflammatory activity against mouse RAW264.7 cells assessed as reduction in LPS induced IL-1 beta level at 5 ug/ml by qRT-PCR analysis; assay type: functional, cell-based; settings: dose 5.0 µg/ml
Influenza A virus [21] = assay: Antiviral activity against Influenza A virus (A/Puerto Rico/8/1934(H1N1)) infected in MDCK cells assessed as reduction in HA mRNA level at 1 ug/ml measured after 24 hrs post infection by qRT-PCR analysis; assay type: functional, organism-based; settings: dose 1.0 µg/ml
RAW264.7 [22] = assay: Anti-inflammatory activity against mouse RAW264.7 cells assessed as reduction in influenza A virus induced IL-1 beta level at 5 ug/ml by qRT- PCR; assay type: functional, cell-based; settings: dose 5.0 µg/ml
Influenza A virus [23] = assay: Antiviral activity against Influenza A virus (A/Puerto Rico/8/1934(H1N1)) infected in MDCK cells assessed as reduction in viral nucleoprotein expression level at 2.5 ug/ml pre-treated with virus measured after 24 hrs post infection by indirect immunofluorescence assay; assay type: functional, organism-based; settings: dose 2.5 µg/ml
RAW264.7 [24] = assay: Anti-inflammatory activity against Influenza A virus (A/Puerto Rico/8/1934(H1N1)) induced mouse RAW264.7 cells assessed as suppression of NF kappa B expression level 5 ug/ml by luciferase reporter assay; assay type: functional, cell-based; settings: dose 5.0 µg/ml
RAW264.7 [25] = assay: Anti-inflammatory activity against mouse RAW264.7 cells assessed as reduction in influenza A virus induced TNF alpha level at 5 ug/ml by qRT- PCR; assay type: functional, cell-based; settings: dose 5.0 µg/ml
RAW264.7 [26] = assay: Anti-inflammatory activity against mouse RAW264.7 cells assessed as reduction in LPS induced IL-6 level at 5 ug/ml by qRT-PCR analysis; assay type: functional, cell-based; settings: dose 5.0 µg/ml
RAW264.7 [27] = assay: Anti-inflammatory activity against mouse RAW264.7 cells assessed as reduction in influenza A virus induced IL-6 level at 5 ug/ml by qRT- PCR; assay type: functional, cell-based; settings: dose 5.0 µg/ml
Mus musculus [28] = assay: Antiviral activity against Kunming mouse infected with Influenza A virus (A/Puerto Rico/8/1934(H1N1)) assessed as survival rate at 5 mg/kg, ip administered once a day for 5 days relative to control; assay type: functional; settings: 120 h, time 5 day
Influenza A virus [29] = assay: Antiviral activity against Influenza A virus (A/Puerto Rico/8/1934(H1N1)) infected in MDCK cells assessed as reduction in M1 mRNA level at 1 ug/ml measured after 24 hrs post infection by qRT-PCR analysis; assay type: functional, organism-based; settings: dose 1.0 µg/ml

Compound	IC50 (Influenza A virus [1])	selectivity ratio [2]	CC50 [3]	IC50 (Influenza A virus [4])	IC50 (Influenza A virus [5])	IC50 (Influenza A virus [6])	CC50 at 1 h [7]	IC50 (Influenza A virus [8])	IC50 (Influenza A virus [9])	IC50 (Influenza A virus [11])	IC50 (Influenza B virus)	also measured
CC(C)CCC[C@@H](C)[C@H]1CC[C@H]2[C@@H]3CC=C4C[C@@H](OC(=O)CN[C@@H](CCCCN)C(=O)N[C@@H](CCCCN)C(=O)N[C@@H](Cc5c[nH]c6ccccc56)C(=O)N[C@@H](CCCCN)C(N)=O)CC[C@]4(C)[C@H]3CC[C@]12C	> 10000 nM	30.5	39100 nM	1610 nM	> 10000 nM	> 5000 nM	44300 nM					
CCOC(=O)c1c(CSc2ccccc2)n(C)c2cc(Br)c(O)c(CN(C)C)c12.Cl		91.4		360 nM			32900 nM	1450 nM	1560 nM	1180 nM	410 nM	Activity (RAW264.7 [10]): 400.5 pg/mL; Activity (RAW264.7 [12]): 294.9 pg/mL; Activity (RAW264.7 [13]): 206.5 pg/mL; Activity (RAW264.7 [14]): 320.5 pg/mL
NCCCC[C@H](NC(=O)[C@H](Cc1c[nH]c2ccccc12)NC(=O)[C@H](CCCCN)NC(=O)[C@H](CCCCN)NC(=O)OCC1c2ccccc2-c2ccccc21)C(=O)O (Fmoc-KKWK-OH)			200000 nM	4020 nM			> 200000 nM					
CCCCCCCC(=O)N[C@@H](CCCCN)C(=O)N[C@@H](CCCCN)C(=O)N[C@@H](Cc1c[nH]c2ccccc12)C(=O)N[C@@H](CCCCN)C(=O)NCCCC[C@H](NC(=O)[C@H](CCCCN)NC(=O)[C@H](Cc1c[nH]c2ccccc12)NC(=O)[C@H](CCCCN)NC(=O)[C@H](CCCCN)NC(=O)CCCCCCC)C(=O)NCCCC[C@H](NC(=O)[C@H](CCCCNC(=O)[C@H](CCCCN)NC(=O)[C@H](Cc1c[nH]c2ccccc12)NC(=O)[C@H](CCCCN)NC(=O)[C@H](CCCCN)NC(=O)CCCCCCC)NC(=O)[C@H](CCCCN)NC(=O)[C@H](Cc1c[nH]c2ccccc12)NC(=O)[C@H](CCCCN)NC(=O)[C@H](CCCCN)NC(=O)CCCCCCC)C(=O)NCC(=O)O (I: Octanoyl-KKWKK([Lys-Trp-Lys-Lys-Octanoyl])KG-OH / II: Octanoyl-KKWKK([Lys-Trp-Lys-Lys-Octanoyl]); amide I:6-II:C)	420 nM	15		570 nM	> 5000 nM	640 nM	8560 nM					
NCCCC[C@H](NC(=O)Cc1ccc2ccccc2c1)C(=O)N[C@@H](CCCCN)C(=O)N[C@@H](Cc1c[nH]c2ccccc12)C(=O)N[C@@H](CCCCN)C(=O)NCCCC[C@H](NC(=O)[C@H](CCCCN)NC(=O)[C@H](Cc1c[nH]c2ccccc12)NC(=O)[C@H](CCCCN)NC(=O)[C@H](CCCCN)NC(=O)Cc1ccc2ccccc2c1)C(=O)NCCCC[C@H](NC(=O)[C@H](CCCCNC(=O)[C@H](CCCCN)NC(=O)[C@H](Cc1c[nH]c2ccccc12)NC(=O)[C@H](CCCCN)NC(=O)[C@H](CCCCN)NC(=O)Cc1ccc2ccccc2c1)NC(=O)[C@H](CCCCN)NC(=O)[C@H](Cc1c[nH]c2ccccc12)NC(=O)[C@H](CCCCN)NC(=O)[C@H](CCCCN)NC(=O)Cc1ccc2ccccc2c1)C(=O)NCC(=O)O (I: {Acetyl(2-naphthyl)}-KKWKK([Lys-Trp-Lys-Lys-Acetyl(2-naphthyl)])KG-OH / II: {Acetyl(2-naphthyl)}-KKWKK([Lys-Trp-Lys-Lys-Acetyl(2-naphthyl)]); amide I:6-II:C)	340 nM	35.5	4410 nM	190 nM	7690 nM	240 nM	6670 nM	230 nM	210 nM	330 nM	220 nM	Kd (Hemagglutinin): 0.00742 nM; Activity (Influenza A virus [15]): Active; Activity (Mus musculus [16]): 135.8%; Activity (Influenza A virus [17]): Active; Activity (RAW264.7 [18]): Active; Activity (RAW264.7 [19]): Active; Activity (RAW264.7 [20]): Active; Activity (Influenza A virus [21]): Active; Activity (RAW264.7 [22]): Active; Activity (Influenza A virus [23]): Active; Activity (RAW264.7 [24]): Active; Activity (RAW264.7 [25]): Active; Activity (RAW264.7 [26]): Active; Activity (RAW264.7 [27]): Active; survival at 5 mg/kg (Mus musculus [28]): 40%; Activity (Influenza A virus [29]): Active
NCCCC[C@H](NC(=O)[C@H](Cc1c[nH]c2ccccc12)NC(=O)[C@H](CCCCN)NC(=O)[C@H](CCCCN)NC(=O)Cc1ccc2ccccc2c1)C(=O)O ({Acetyl(2-naphthyl)}-KKWK-OH)			200000 nM	4040 nM			> 200000 nM					

— ChEMBL document CHEMBL5131467, “Multivalent peptide dendrimers inhibit the fusion of viral-cellular membranes and the cellular NF-κB signaling pathway” (Eur J Med Chem, 2022)
